Earlier results, collected in patent US20240115494A1, “ENCAPSULATED COMPOSITIONS AND METHOD OF USE - AFFECTING SATIETY” (Nutragenom, LLC, priority 2021, published 2024).

Conditions: 100% glycerol, quoted for comparison

OCC(O)CO [100% glycerol, glycerol]
Viscosity (comparison value): 4,000 mPa·s
